These results are taken from BindingDB's records for doi:10.1007/bf00175797 (Pharmakologisches Institut, Heidelberg, 1988).

In general, pKi refers to the Ki on a negative log10 scale, so that one unit is a factor of ten.

The experiment has as its target Adenosine receptor A2a (Rattus norvegicus, UniProt P30543).

Each structure is given as a SMILES string. pKi: −log10 of the molar value.

Chain of Adenosine receptor A2a (P30543 whole entry): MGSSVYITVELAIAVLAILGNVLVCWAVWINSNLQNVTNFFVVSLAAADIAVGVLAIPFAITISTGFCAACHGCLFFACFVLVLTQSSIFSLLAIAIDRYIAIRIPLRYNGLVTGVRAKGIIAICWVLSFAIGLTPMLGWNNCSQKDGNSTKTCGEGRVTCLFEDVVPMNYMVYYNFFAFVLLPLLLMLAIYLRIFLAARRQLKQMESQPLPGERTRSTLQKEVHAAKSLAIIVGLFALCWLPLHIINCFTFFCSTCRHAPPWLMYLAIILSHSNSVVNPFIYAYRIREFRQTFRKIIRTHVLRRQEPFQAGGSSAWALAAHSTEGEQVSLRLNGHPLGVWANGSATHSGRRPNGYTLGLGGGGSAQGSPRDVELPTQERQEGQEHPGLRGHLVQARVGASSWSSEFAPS

Turning to `OC[C@H]1O[C@@H](n2cnc3c(NC4CCCC4)ncnc32)[C@H](O)[C@@H]1O`, the negative-log Ki (pKi) was 5.70.
